Assay results published in patent US20230146395A1, “Substituted Pyrimidines and Uses Thereof” (Verge Analytics, Inc., priority 2020, published 2023).

What was measured:
[1] = system: HEK 293T transfected with plasmids containing TDP-43 Q331K mutation; assay: HEK/TDP Survival assay (Cell-Titer-Glo, 48 hrs, maximal effect of rescue); format: cell-based; conditions: Homo sapiens, HEK 293T with TDP-43 Q331K, (n) in brackets
Experimental: HEK/TDP Survival assay: Immortalized human embryonic kidney 293T (HEK 293T) were transfected with plasmids containing TDP-43 Q331K mutation, resulting in an increase in cell death that is biologically relevant to ALS patients. Cell death is measured as reductions in the amount of ATP, an indicator of metabolically active cells, that is quantified by a luminescence Cell-Titer-Glo® (CTG) reagent. Compounds are evaluated in this model for changes in CTG compared to a no treatment group. Increased signal indicates improved survival (rescue) and decreased signal indicates decreased survival.
Cell rescue was measured in a 96-well format with eight different concentrations of the test compound over 48 hours (hrs) with 6 replicates. The Promega Cell-Titer-Glo® Luminescent Cell Viability Assay was used to quantify ATP, an indicator of metabolically active cells (see protocol: https://www.promega.com/-/media/files/resources/protocols/technical-manuals/101/celltiterglo-2-0-assay-protocol.pdf?la=en). The luminescence signal was detected using the PerkinElmer EnVision or Molecular Devices SpectraMax.
The effect of a compound at a given dose on cell viability was determined using a three step procedure. First, Hedge's g for the Cell Titer-Glo luminescence values using six untreated wells on every plate as a control was calculated. […] Finally, values from all compound-dose pairs were corrected for multiple hypothesis testing using the Empirical Bayes framework of Stephens, M. (False discovery rates: a new deal, Biostatistics, 18 [2], 2017, 275-294) yielding credible intervals for the measured effect and associated s values.
Briefly, this method computes a local false sign rate for each experiment. Analogous to the local false discovery rate of Efron, B. (Size, power and false discovery rates, Ann. Statist. 35 [4], 2007, 1351-1377) this value measures the confidence in the sign of each effect (rather than confidence in each effect being non-zero). The s values reported in the previous figures are the expected fraction of errors if estimating the sign of all effects with greater absolute local false sign rate, defined in analogy to the q value of Storey, JD (The positive false discovery rate: a Bayesian interpretation and the q-value, Ann. Statist. 31 [6] 2003, 2013-2035).
Drugs that yielded signed log s values greater than 3 were considered hits. This threshold was determined by a separate calibration experiment in which Cell Titer-Glo® was measured in blank plates consisting of untreated cells to assess the noise inherent in the assay. Data are presented as the maximal effect of rescue obtained from the dose-response curve.

[2] = target: T1, Full length human recombinant PIKFYVE (Homo sapiens, UniProt Q9Y2I7); assay: Inhibition of PIKfyve (microfluidic electrophoresis kinase assay, PI3P/PS substrate); format: biochemical; conditions: 12 concentrations
T1 construct: Full length human recombinant PIKFYVE; purchased Carna Biosciences (Kobe, Japan); host or cells: baculovirus expression system
T1 sequence (Q9Y2I7 whole entry): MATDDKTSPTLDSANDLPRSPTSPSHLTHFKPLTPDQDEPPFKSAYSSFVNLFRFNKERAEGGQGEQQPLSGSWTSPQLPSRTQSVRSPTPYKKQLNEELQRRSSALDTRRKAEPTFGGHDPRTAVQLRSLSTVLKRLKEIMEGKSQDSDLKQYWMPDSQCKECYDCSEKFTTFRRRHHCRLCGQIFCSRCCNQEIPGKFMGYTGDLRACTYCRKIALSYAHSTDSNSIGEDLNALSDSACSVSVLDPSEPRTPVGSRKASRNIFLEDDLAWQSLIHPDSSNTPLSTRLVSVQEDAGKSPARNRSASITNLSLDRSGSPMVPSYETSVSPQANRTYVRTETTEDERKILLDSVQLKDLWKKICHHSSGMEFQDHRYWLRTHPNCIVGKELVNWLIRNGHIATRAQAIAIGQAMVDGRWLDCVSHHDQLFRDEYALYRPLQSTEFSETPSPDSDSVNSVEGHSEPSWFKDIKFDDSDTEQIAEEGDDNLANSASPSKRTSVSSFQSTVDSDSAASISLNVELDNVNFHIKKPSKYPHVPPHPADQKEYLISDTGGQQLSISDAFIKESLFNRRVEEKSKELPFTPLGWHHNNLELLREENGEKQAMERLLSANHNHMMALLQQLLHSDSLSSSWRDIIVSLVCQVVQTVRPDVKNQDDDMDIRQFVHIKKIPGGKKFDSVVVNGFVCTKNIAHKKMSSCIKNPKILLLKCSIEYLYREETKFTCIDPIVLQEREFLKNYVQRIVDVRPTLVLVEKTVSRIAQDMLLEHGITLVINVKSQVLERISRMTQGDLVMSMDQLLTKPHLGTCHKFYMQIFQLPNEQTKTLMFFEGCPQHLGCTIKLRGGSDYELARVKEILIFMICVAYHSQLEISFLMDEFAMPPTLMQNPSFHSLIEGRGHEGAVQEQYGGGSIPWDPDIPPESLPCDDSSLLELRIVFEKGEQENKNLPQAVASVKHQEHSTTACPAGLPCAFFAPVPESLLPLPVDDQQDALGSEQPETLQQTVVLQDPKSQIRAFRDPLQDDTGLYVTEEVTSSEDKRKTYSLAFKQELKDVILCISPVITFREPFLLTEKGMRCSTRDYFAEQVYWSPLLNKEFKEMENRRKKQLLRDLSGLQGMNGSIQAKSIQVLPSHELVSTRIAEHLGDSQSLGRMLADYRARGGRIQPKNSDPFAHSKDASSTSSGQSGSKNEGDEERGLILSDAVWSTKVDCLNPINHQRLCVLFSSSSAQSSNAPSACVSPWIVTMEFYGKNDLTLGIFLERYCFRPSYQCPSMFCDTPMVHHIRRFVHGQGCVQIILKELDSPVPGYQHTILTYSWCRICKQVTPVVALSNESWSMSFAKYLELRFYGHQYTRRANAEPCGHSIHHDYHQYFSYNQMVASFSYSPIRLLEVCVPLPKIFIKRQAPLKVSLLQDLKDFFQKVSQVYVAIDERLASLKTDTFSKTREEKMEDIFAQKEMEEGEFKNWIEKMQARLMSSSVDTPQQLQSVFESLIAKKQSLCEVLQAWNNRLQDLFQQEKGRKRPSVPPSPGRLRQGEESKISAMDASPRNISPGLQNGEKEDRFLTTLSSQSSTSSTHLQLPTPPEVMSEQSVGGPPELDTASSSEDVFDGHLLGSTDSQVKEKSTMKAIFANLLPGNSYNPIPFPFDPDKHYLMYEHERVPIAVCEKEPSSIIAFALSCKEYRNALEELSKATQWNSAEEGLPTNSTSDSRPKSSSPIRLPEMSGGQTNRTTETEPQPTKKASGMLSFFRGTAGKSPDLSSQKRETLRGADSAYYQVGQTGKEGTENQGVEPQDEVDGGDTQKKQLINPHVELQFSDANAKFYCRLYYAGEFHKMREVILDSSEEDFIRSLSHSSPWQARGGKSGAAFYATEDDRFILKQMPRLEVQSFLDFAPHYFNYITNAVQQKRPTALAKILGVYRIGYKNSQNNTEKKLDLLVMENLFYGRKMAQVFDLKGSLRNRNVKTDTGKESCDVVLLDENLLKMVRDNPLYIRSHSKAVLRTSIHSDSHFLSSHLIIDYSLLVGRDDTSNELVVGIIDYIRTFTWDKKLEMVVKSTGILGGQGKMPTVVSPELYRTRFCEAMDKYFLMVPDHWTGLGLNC
In short: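 Percent inhibition, from 12 concentrations, was derived from the product/(substrate+product) peak ratio separated by microfluidic electrophoresis, normalized to DMSO-only and enzyme-free controls. Reactions ran 3 h at room temperature: 2 nM N-terminal GST-PIKFYVE, 1 μM fluorescent PI3P in PS vesicles, […], HEPES pH 7.5, MgCl2/MnCl2.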

Compound | EC50 [1] [nM] | IC50 [2] [nM]
Cc1cccc(-c2cnn(-c3nc(N4CCOCC4)c4oc(C(=O)NC5CCN(C)CC5)cc4n3)c2)c1 [Compound 121, N-(1-methylpiperidin-4-yl)-4-morpholino-2-(4-(m-tolyl)-1H-pyrazol-1-yl)furo[3,2-d]pyrimidine-6-carboxamide] | 21.5 | 1.2
Cc1cccc(-c2ccn(-c3nc(N4CCOCC4)c4oc(C(=O)NCC5CC5)cc4n3)n2)c1 [Compound 97, N-(cyclopropylmethy 1)-4-morpholino-2-(3-(m-tolyl)-1H-pyrazol-1-yl)furo[3,2-d]pyrimidine-6-carboxamide] | 16.5 | 17
Cc1cccc(-c2ccn(-c3nc(N4CCOCC4)c4oc(C(=O)NCC5COC5)cc4n3)n2)c1 [Compound 105, 4-morpholino-N-(oxetan-3-ylmethyl)-2-(3-(m-tolyl)-1H-pyrazol-1-yl)furo[3,2-d]pyrimidine-6-carboxamide] | 100 | 32.3
Cc1cccc(-c2ccn(-c3nc(N4CCOCC4)c4oc(-c5cccnc5)cc4n3)n2)c1 [Compound 90] | 20.5 | 7.7
Cc1cccc(-c2ccn(-c3nc(N4CCOCC4)c4oc(C(=O)NC5CC5)cc4n3)n2)c1 [Compound 96, N-cyclopropyl-4-morpholino-2-(3-(m-tolyl)-1H-pyrazol-1-yl)furo[3,2-d]pyrimidine-6-carboxamide] | 17.5 | 15
Cc1cccc(-c2cnn(-c3nc(N4CCOCC4)c4oc(C(=O)NCCCS(C)(=O)=O)cc4n3)c2)c1 [Compound 119, N-(3-(methylsulfonyl)propyl)-4-morpholino-2-(4-(m-tolyl)-1H-pyrazol-1-yl)furo[3,2-d]pyrimidine-6-carboxamide] | 96.5 | 8.2
Cc1cccc(-c2ccn(-c3nc(N4CCOCC4)c4oc(C(=O)NC5COC5)cc4n3)n2)c1 [Compound 104, 4-morpholino-N-(oxetan-3-yl)-2-(3-(m-tolyl)-1H-pyrazol-1-yl)furo[3,2-d]pyrimidine-6-carboxamide] | 98 | 41.2
Cc1cccc(-c2cnn(-c3nc(N4CCOCC4)c4oc(C(=O)NCC5CC5)cc4n3)c2)c1 [Compound 115, N-(cyclopropylmethyl)-4-morpholino-2-(4-(m-tolyl)-1H-pyrazol-1-yl)furo[3,2-d]pyrimidine-6-carboxamide] | 35.7 | 3.1
[2H]C1([2H])OC([2H])([2H])C([2H])([2H])N(c2nc(-n3cc(-c4cccc(C)c4)cn3)nc3cc(C(=O)NCC)oc23)C1([2H])[2H] [Compound 131, N-ethyl-4-morpholino(dg)-2-(4-(m-tolyl)-1H-pyrazol-1-yl)furo[3,2-d]pyrimidine-6-carboxamide] | 17 | 18
CCNC(=O)c1cc2nc(-n3ccc(-c4cccc(C)c4)n3)nc(N3CCOCC3)c2o1 [Compound 95, N-ethyl-4-morpholino-2-(3-(m-tolyl)-1H-pyrazol-1-yl)furo[3,2-d]pyrimidine-6-carboxamide] | 94 | 11.8
Cc1cccc(-c2cnn(-c3nc(N4CCOCC4)c4oc(C(=O)NCCCS(=O)(=O)N(C)C)cc4n3)c2)c1 [Compound 120, N-(3-(N,N-dimethylsulfamoyl)propyl)-4-morpholino-2-(4-(m-tolyl)-1H-pyrazol-1-yl)furo[3,2-d]pyrimidine-6-carboxamide] | 121 | 16.2
Cc1cccc(-c2cnn(-c3nc(N4CCOCC4)c4oc(C(=O)NC5CCCN(C)CC5)cc4n3)c2)c1 (stereo not shown) [Compound 129, N-(1-methylazepan-4-yl)-4-morpholino-2-(4-(m-tolyl)-1H-pyrazol-1-yl)furo[3,2-d]pyrimidine-6-carboxamide] | 9 | 11.8
Cc1cccc(-c2ccn(-c3nc(N4CCOCC4)c4oc(-c5ccncc5)cc4n3)n2)c1 [Compound 89, 4-morpholino-6-(pyridin-4-yl)-2-(3-(m-tolyl)-1H-pyrazol-1-yl)furo[3,2-d]pyrimidine] | 31.5 | 19
Cc1cccc(-c2cnn(-c3nc(N4CCOCC4)c4oc(C(=O)NC5CCOCC5)cc4n3)c2)c1 [Compound 125, 4-morpholino-N-(tetrahydro-2H-pyran-4-yl)-2-(4-(m-tolyl)-1H-pyrazol-1-yl)furo[3,2-d]pyrimidine-6-carboxamide] | 26 | 0.9
Cc1cccc(-c2cnn(-c3nc(N4CCOCC4)c4oc(-c5cc(C)n[nH]5)cc4n3)c2)c1 [Compound 144, 6-(3-methyl-1H-pyrazol-5-yl)-4-morpholino-2-(4-(m-tolyl)-1H-pyrazol-1-yl)furo[3,2-d]pyrimidine] | 13 | 0.3
Cc1cccc(-c2cnn(-c3nc(N4CCOCC4)c4oc(C(=O)NC5CCN(C)C5)cc4n3)c2)c1 (stereo not shown) [Compound 124, N-(1-methylpyrrolidin-3-yl)-4-morpholino-2-(4-(m-tolyl)-1H-pyrazol-1-yl)furo[3,2-d]pyrimidine-6-carboxamide] | 48 | 4.7
Cc1cccc(-c2ccn(-c3nc(N4CCOCC4)c4oc(-c5ccccn5)c(C(F)(F)F)c4n3)n2)c1 [Compound 112, 4-morpholino-6-(pyridin-2-yl)-2-(3-(m-tolyl)-1H-pyrazol-1-yl)-7-(trifluoromethyl) furo[3,2-d]pyrimidine] | 153 | > 10000
Cc1cccc(-c2cnn(-c3nc(N4CCOCC4)c4oc(C(=O)NC5CCOC5)cc4n3)c2)c1 (stereo not shown) [Compound 126, 4-morpholino-N-(tetrahydrofuran-3-yl)-2-(4-(m-tolyl)-1H-pyrazol-1-yl)furo[3,2-d]pyrimidine-6-carboxamide] | 30.5 | 2.9
Cc1cccc(-c2cnn(-c3nc(N4CCOCC4)c4oc(C(=O)NCCCCN(C)C)cc4n3)c2)c1 [Compound 110, N-(4-(dimethylamino)butyl)-4-morpholino-2-(4-(m-tolyl)-1H-pyrazol-1-yl)furo[3,2-d]pyrimidine-6-carboxamide] | 33 | 2.9
C[C@H](NC(=O)c1cc2nc(-n3cc(-c4ccccc4)cn3)nc(N3CCOCC3)c2o1)C1CC1 [Compound 114, (S)-N-(1-cyclopropylethyl)-4-morpholino-2-(4-phenyl-1H-pyrazol-1-yl)furo[3,2-d]pyrimidine-6-carboxamide] | 61 | 9.6
Cc1cccc(-c2ccn(-c3nc(N4CCOCC4)c4oc(C(=O)NCCCCN(C)C)cc4n3)n2)c1 [Compound 108, N-(4-(dimethylamino)butyl)-4-morpholino-2-(3-(m-tolyl)-1H-pyrazol-1-yl)furo[3,2-d]pyrimidine-6-carboxamide] | 53 | 23.3
COCCNC(=O)c1cc2nc(-n3ccc(-c4cccc(C)c4)n3)nc(N3CCOCC3)c2o1 [Compound 93, N-(2-methoxyethyl)-4-morpholino-2-(3-(m-tolyl)-1H-pyrazol-1-yl)furo[3,2-d]pyrimidine-6-carboxamide] | 60 | 47.3
c1ccc(-c2cc(Nc3nc(N4CCOCC4)c4oc(-c5ccncc5)cc4n3)no2)cc1 [Compound 43, 4-morpholino-N-(5-phenylisoxazol-3-yl)-6-(pyridin-4-yl)furo[3,2-d]pyrimidin-2-amine] | 47.5 | 8
